# Laboratory results taken from patent US10233182B2, “Substituted spirocyclic inhibitors of autotaxin” (X-Rx, Inc., priority 2014, dated 2019).
# Structures can show the parent of a compound that is named as a salt.
# Biological target: Autotaxin (Homo sapiens (Human), UniProt Q13822)
# Assay: Autotaxin LPC Cascade Assay
# Type: biochemical
# Conditions: Autotaxin 5 nM, LPC 100 μM, choline oxidase/HRP/Ampliflu Red fluorescence read-out, 2% DMSO, RT; read-out: IC50 ATX Activity
# Outline: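 Choline liberated from LPC by autotaxin during 1 h, after a 10-min RT compound preincubation, was converted through choline oxidase/HRP to a fluorescent Ampliflu Red product.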
row,SMILES,IC50 [nM]
1,"CC(C)[C@@H](NC(=O)c1ccccc1)C(=O)N1CCC2(CC1)C(=O)N(C)C(=O)N2c1ccc2[nH]ncc2c1 [Example 233, (R)—N-(1-(1-(1H-Indazol-5-yl)-3-methyl-2,4-dioxo-1,3,8-triazaspiro[4.5]decan-8-yl)-3-methyl-1-oxobutan-2-yl)benzamide]",≥ 1000
2,"CC(C)[C@@H](NC(=O)c1nccs1)C(=O)N1CCC2(CC1)C(=O)N(C)C(=O)N2c1ccc2[nH]ncc2c1 [Example 234, (R)—N-(1-(1-(1H-Indazol-5-yl)-3-methyl-2,4-dioxo-1,3,8-triazaspiro[4.5]decan-8-yl)-3-methyl-1-oxobutan-2-yl)thiazole-2-carboxamide]",≥ 1000
3,"CC(C)[C@@H](NC(=O)c1nc(C(F)(F)F)cs1)C(=O)N1CCC2(CC1)C(=O)N(C)C(=O)N2c1ccc2[nH]ncc2c1 [Example 235, (R)—N-(1-(1-(1H-Indazol-5-yl)-3-methyl-2,4-dioxo-1,3,8-triazaspiro[4.5]decan-8-yl)-3-methyl-1-oxobutan-2-yl)-4-(trifluoromethyl)thiazole-2-carboxamide]",≥ 1000
4,"CC(C)[C@H](C(=O)N1CCC2(CC1)C(=O)N(C)C(=O)N2c1ccc2[nH]ncc2c1)N(C)C(=O)c1cc(C(F)(F)F)ccc1F [Example 236, (R)—N-(1-(1-(1H-Indazol-5-yl)-3-methyl-2,4-dioxo-1,3,8-triazaspiro[4.5]decan-8-yl)-3-methyl-1-oxobutan-2-yl)-2-fluoro-N-methyl-5-(trifluoromethyl)benzamide]",≥ 1000
5,"CC(C)[C@@H](NC(=O)c1cc(C(F)(F)F)ccc1F)C(=O)N1CCC2(CC1)C(=O)N(CCN(C)C)C(=O)N2c1ccc(C(=O)O)cc1 [Example 237, (R)-4-(3-(2-(Dimethylamino)ethyl)-8-(2-(2-fluoro-5-(trifluoromethyl)benzamido)-3-methylbutanoyl)-2,4-dioxo-1,3,8-triazaspiro[4.5]decan-1-yl)benzoic Acid trifluoroacetic Acid Salt]",< 500
6,"CC(C)[C@@H](NC(=O)c1cc(C(F)(F)F)ccc1F)C(=O)N1CCC2(CC1)C(=O)N(CCN(C)C)CN2c1ccc(C(=O)O)cc1 [Example 238, (R)-4-(3-(2-(Dimethylamino)ethyl)-8-(2-(2-fluoro-5-(trifluoromethyl)benzamido)-3-methylbutanoyl)-4-oxo-1,3,8-triazaspiro[4.5]decan-1-yl)benzoic Acid trifluoroacetic Acid Salt]",< 500
7,"CC(C)[C@@H](NC(=O)c1cc(C(F)(F)F)ccc1F)C(=O)N1CCC2(CC1)C(=O)N(C)C(=O)N2c1ccncc1 [Example 239, (R)-2-Fluoro-N-(3-methyl-1-(3-methyl-2,4-dioxo-1-(pyridin-4-yl)-1,3,8-triazaspiro[4.5]decan-8-yl)-1-oxobutan-2-yl)-5-(trifluoromethyl)benzamide]",< 500
8,"CC(C)[C@@H](NC(=O)c1cc(C(F)(F)F)ccc1F)C(=O)N1CCC2(CC1)C(=O)N(C)C(=O)N2c1cc[n+]([O-])cc1 [Example 240, (R)-4-(8-(2-(2-Fluoro-5-(trifluoromethyl)benzamido)-3-methylbutanoy)-3-methyl-2,4-dioxo-1,3,8-triazaspiro[4.5]decan-1-yl)pyridine 1-oxide]",≥ 1000
9,"COC1CCC(N2C(=O)N(C)C(=O)C23CCN(C(=O)[C@H](NC(=O)c2cc(C(F)(F)F)ccc2F)C(C)C)CC3)CC1 (stereo partly drawn) [Example 241, (R)-2-Fluoro-N-(1-(1-(4-methoxycyclohexyl)-3-methyl-2,4-dioxo-1,3,8-triazaspiro[4.5]decan-8-yl)-3-methyl-1-oxobutan-2-yl)-5-(trifluoromethyl)benzamide]",≥ 1000
10,"CC(C)[C@@H](NC(=O)c1cc(C(F)(F)F)ccc1F)C(=O)N1CCC2(CC1)C(=O)N(C)C(=O)N2C1CCCCC1 [Example 242, (R)—N-(1-(1-Cyclohexyl-3-methyl-2,4-dioxo-1,3,8-triazaspiro[4.5]decan-8-yl)-3-methyl-1-oxobutan-2-yl)-2-fluoro-5-(trifluoromethyl)benzamide]",< 500
11,"CC(C)[C@@H](NC(=O)c1cc(C(F)(F)F)ccc1F)C(=O)N1CCC2(CC1)C(=O)N(C)C(=O)N2c1ccc2ocnc2c1 [Example 245, (R)—N-(1-(1-(Benzo[d]oxazol-5-yl)-3-methyl-2,4-dioxo-1,3,8-triazaspiro[4.5]decan-8-yl)-3-methyl-1-oxobutan-2-yl)-2-fluoro-5-(trifluoromethyl)benzamide]",< 500
12,"Cc1nc2cc(N3C(=O)N(C)C(=O)C34CCN(C(=O)[C@H](NC(=O)c3cc(C(F)(F)F)ccc3F)C(C)C)CC4)ccc2o1 [Example 246, (R)—N-(1-(1-(2-Methylbenzo[d]oxazol-5-yl)-3-methyl-2,4-dioxo-1,3,8-triazaspiro[4.5]decan-8-yl)-3-methyl-1-oxobutan-2-yl)-2-fluoro-5-(trifluoromethyl)benzamide]",< 500
